Patent US11311598B2, “Peptides and analogs for use in the treatment of oral mucositis” (Soligenix, Inc., priority 2013, dated 2022)
“Also recorded” adds a separate entry of the source. *1 amine or outer side, *2 acyl side, *3 side chain or, on linkers, in order; H or OH if unused. Where no end group is shown, it is not given here. [ ]: non-standard residue; d: D form. mp2 = 4-amino-1-methyl-1H-pyrrole-2-carboxylic acid, Cn1cc(N[*:1])cc1C(=O)[*:2]

Legend:
MRSA [1] = assay: MRSA skin infection model; type: in vivo, mouse; conditions: 48 or 96 h after bacterial challenge
Description: Infection was initiated 1 day after the hair was removed from the dorsal area of each mouse. RIVPA (SEQ ID NO. 5) (25 mg/kg IV or 100 mg/kg SC) was administered 4 h prior to infection and at various times after infection as indicated. Oral linezolid was used as the comparator and was administered daily at 12.5 mg/kg. On Day 0 (at −1 h) each mouse was anesthetized using isoflurane and the shaved dorsal skin was damaged by 7 consecutive applications and removals of surgical tape. This lesion was then immediately infected by topical administration of 10 μL of the bacterial suspension, delivering a total challenge of 7.6 login cfu per mouse. Efficacy was evaluated by measurement of the bacterial burden in punch biopsies of the skin at 48 h (FIG. 14—panel A) and 96 h (FIG. 14—panel B) following the bacterial challenge and by macroscopic assessment of digital images of the skin by a blinded, board-certified pathologist at 48 h (FIG. 14—panel C) and 96 h (FIG. 14—panel D) after infection. […] The mean bacterial burden for each therapeutic group was statistically compared to that of its time-matched saline control through use of a t-test comparison of means, assuming unequal variances, performed on Excel. Comparisons which returned a p value […] were considered statistically different.

male C3H/HeN mice = assay: chemotherapy-induced oral and gastrointestinal mucositis in the mouse; type: in vivo; conditions: 25 mg/kg IV on Days −1 and 2, scores evaluated for 4 days after induction
Description: In each study, 5-fluorouracil (60 mg/kg IP) was administered to male C3H/HeN mice on Days −4 and −2. […] […] Body weights were also measured daily and colitis severity was determined by video endoscopy on Days 4 and 7. In the first study, RIVPA (SEQ ID NO. 5) (25 mg/kg IV) was administered either once on Day −4 immediately prior to chemotherapy, twice on Days −4 and −2 immediately after chemotherapy or 3 times on Days −1, 2 and 5. […] In the second study, RIVPA (SEQ ID NO. 5) (25 mg/kg IV) was administered on either Days −1, 2 and 5, Days −1, 1 and 3 or Days 0, 2, and 4. […] In the third study, RIVPA (SEQ ID NO. 5) (25 or 5 mg/kg IV, as indicated) was administered either on Days −1, 2 and 5 or on Days 1 and 3. […] Statistical significance was assessed for oral mucositis using a chi-square analysis and for body weight area under the curve (AUC) with an ANOVA on ranks. […] Treatment with R(tBg)V1KR(tBg)V2 (SEQ ID NO. 91) and RIV(mp2)A-NH2 (SEQ ID NO. 92) was administered on Days −1 and 2 at a dose of 25 mg/kg IV.

MRSA [2] = assay: MRSA bacteremia model (other IDR peptides); type: in vivo; conditions: 5 mg/kg administered 4 hours prior to infection

| Compound | bacterial load in skin punch biopsies relative to control (MRSA [1]) | severity of oral mucositis (mucositis scores) (male C3H/HeN mice) | survival (MRSA [2]) | severity of oral mucositis (mucositis scores) (male C3H/HeN mice; listed as 92) |
| --- | --- | --- | --- | --- |
| CC(=O)NC[C@H]1CN(c2ccc(N3CCOCC3)c(F)c2)C(=O)O1 [linezolid, reference compound] | neither linezolid nor RIVPA (SEQ ID NO. 5) reduced bacterial load | – | – | – |
| R(tBg)V1KR(tBg)V2 [R(tBg)V1KR(tBg)V2 (SEQ ID NO. 91)] | – | reduces; also recorded: demonstrated efficacy | improve survival; also recorded: enhances survival | – |
| RIV(mp2)A-NH2 (RIV[mp2]A-NH2; N-terminus assumed; SMILES CC[C@H](C)[C@H](NC(=O)[C@@H](N)CCCNC(=N)N)C(=O)N[C@H](C(=O)Nc1cc(C(=O)N[C@@H](C)C(N)=O)n(C)c1)C(C)C) [RIV(mp2)A-NH2 (SEQ ID NO. 92), mp2 = 4-Amino-1-methyl-1H-pyrrole-2-carboxylic acid] | – | reduces | enhances survival | demonstrated efficacy |
| RIVPAY* (RIVPA[dY]; also: C-terminal modification (*)) [RIVPAY* (SEQ ID NO. 90)] | – | – | improve survival | – |
